# System: Staphylococcus aureus
# Test: Antibacterial activity against Staphylococcus aureus by agar dilution method
# Type: functional
row,Structure (SMILES),MIC
1,O=C(N/N=C/c1cn(-c2ccccc2)nc1-c1ccc(Br)cc1)c1cccc(-n2cc(-c3ccccc3)nn2)c1,2 µg/mL
2,Cc1ccc(-c2nn(-c3ccccc3)cc2/C=N/NC(=O)c2cccc(-n3cc(-c4ccccc4)nn3)c2)cc1,2 µg/mL
3,COc1ccc(-c2nn(-c3ccccc3)cc2/C=N/NC(=O)c2cccc(-n3cc(-c4ccccc4)nn3)c2)cc1OC,2 µg/mL
4,O=C(N/N=C/c1cn(-c2ccccc2)nc1-c1ccccc1)c1cccc(-n2cc(-c3ccccc3)nn2)c1,8 µg/mL
5,O=C(N/N=C/c1cn(-c2ccccc2)nc1-c1cccc2ccccc12)c1cccc(-n2cc(-c3ccccc3)nn2)c1,2 µg/mL
6,O=C(N/N=C/c1cn(-c2ccccc2)nc1-c1ccc(Cl)cc1)c1cccc(-n2cc(-c3ccccc3)nn2)c1,4 µg/mL
7,O=C(N/N=C/c1cn(-c2ccccc2)nc1-c1cccc(O)c1)c1cccc(-n2cc(-c3ccccc3)nn2)c1,2 µg/mL
8,COc1ccc(-c2nn(-c3ccccc3)cc2/C=N/NC(=O)c2cccc(-n3cc(-c4ccccc4)nn3)c2)cc1,2 µg/mL
9,O=C(N/N=C/c1cn(-c2ccccc2)nc1-c1ccc(O)cc1O)c1cccc(-n2cc(-c3ccccc3)nn2)c1,2 µg/mL

# System: Bacillus cereus
# Test: Antibacterial activity against Bacillus cereus by agar dilution method
# Type: functional
row,Structure (SMILES),MIC
1,O=C(N/N=C/c1cn(-c2ccccc2)nc1-c1ccc(Br)cc1)c1cccc(-n2cc(-c3ccccc3)nn2)c1,2 µg/mL
2,Cc1ccc(-c2nn(-c3ccccc3)cc2/C=N/NC(=O)c2cccc(-n3cc(-c4ccccc4)nn3)c2)cc1,2 µg/mL
3,COc1ccc(-c2nn(-c3ccccc3)cc2/C=N/NC(=O)c2cccc(-n3cc(-c4ccccc4)nn3)c2)cc1OC,2 µg/mL
4,O=C(N/N=C/c1cn(-c2ccccc2)nc1-c1ccccc1)c1cccc(-n2cc(-c3ccccc3)nn2)c1,8 µg/mL
5,O=C(N/N=C/c1cn(-c2ccccc2)nc1-c1cccc2ccccc12)c1cccc(-n2cc(-c3ccccc3)nn2)c1,2 µg/mL
6,O=C(N/N=C/c1cn(-c2ccccc2)nc1-c1ccc(Cl)cc1)c1cccc(-n2cc(-c3ccccc3)nn2)c1,4 µg/mL
7,O=C(N/N=C/c1cn(-c2ccccc2)nc1-c1cccc(O)c1)c1cccc(-n2cc(-c3ccccc3)nn2)c1,2 µg/mL
8,COc1ccc(-c2nn(-c3ccccc3)cc2/C=N/NC(=O)c2cccc(-n3cc(-c4ccccc4)nn3)c2)cc1,2 µg/mL
9,O=C(N/N=C/c1cn(-c2ccccc2)nc1-c1ccc(O)cc1O)c1cccc(-n2cc(-c3ccccc3)nn2)c1,2 µg/mL

# System: Escherichia coli
# Test: Antibacterial activity against Escherichia coli by agar dilution method
# Type: functional
row,Structure (SMILES),MIC
1,O=C(N/N=C/c1cn(-c2ccccc2)nc1-c1ccc(Br)cc1)c1cccc(-n2cc(-c3ccccc3)nn2)c1,2 µg/mL
2,Cc1ccc(-c2nn(-c3ccccc3)cc2/C=N/NC(=O)c2cccc(-n3cc(-c4ccccc4)nn3)c2)cc1,2 µg/mL
3,COc1ccc(-c2nn(-c3ccccc3)cc2/C=N/NC(=O)c2cccc(-n3cc(-c4ccccc4)nn3)c2)cc1OC,2 µg/mL
4,O=C(N/N=C/c1cn(-c2ccccc2)nc1-c1ccccc1)c1cccc(-n2cc(-c3ccccc3)nn2)c1,8 µg/mL
5,O=C(N/N=C/c1cn(-c2ccccc2)nc1-c1cccc2ccccc12)c1cccc(-n2cc(-c3ccccc3)nn2)c1,2 µg/mL
6,O=C(N/N=C/c1cn(-c2ccccc2)nc1-c1ccc(Cl)cc1)c1cccc(-n2cc(-c3ccccc3)nn2)c1,4 µg/mL
7,O=C(N/N=C/c1cn(-c2ccccc2)nc1-c1cccc(O)c1)c1cccc(-n2cc(-c3ccccc3)nn2)c1,2 µg/mL
8,COc1ccc(-c2nn(-c3ccccc3)cc2/C=N/NC(=O)c2cccc(-n3cc(-c4ccccc4)nn3)c2)cc1,2 µg/mL
9,O=C(N/N=C/c1cn(-c2ccccc2)nc1-c1ccc(O)cc1O)c1cccc(-n2cc(-c3ccccc3)nn2)c1,2 µg/mL

# System: Pseudomonas aeruginosa
# Test: Antibacterial activity against Pseudomonas aeruginosa by agar dilution method
# Type: functional
row,Structure (SMILES),MIC
1,O=C(N/N=C/c1cn(-c2ccccc2)nc1-c1ccc(Br)cc1)c1cccc(-n2cc(-c3ccccc3)nn2)c1,2 µg/mL
2,Cc1ccc(-c2nn(-c3ccccc3)cc2/C=N/NC(=O)c2cccc(-n3cc(-c4ccccc4)nn3)c2)cc1,2 µg/mL
3,COc1ccc(-c2nn(-c3ccccc3)cc2/C=N/NC(=O)c2cccc(-n3cc(-c4ccccc4)nn3)c2)cc1OC,2 µg/mL
4,O=C(N/N=C/c1cn(-c2ccccc2)nc1-c1ccccc1)c1cccc(-n2cc(-c3ccccc3)nn2)c1,8 µg/mL
5,O=C(N/N=C/c1cn(-c2ccccc2)nc1-c1cccc2ccccc12)c1cccc(-n2cc(-c3ccccc3)nn2)c1,2 µg/mL
6,O=C(N/N=C/c1cn(-c2ccccc2)nc1-c1ccc(Cl)cc1)c1cccc(-n2cc(-c3ccccc3)nn2)c1,4 µg/mL
7,O=C(N/N=C/c1cn(-c2ccccc2)nc1-c1cccc(O)c1)c1cccc(-n2cc(-c3ccccc3)nn2)c1,2 µg/mL
8,COc1ccc(-c2nn(-c3ccccc3)cc2/C=N/NC(=O)c2cccc(-n3cc(-c4ccccc4)nn3)c2)cc1,2 µg/mL
9,O=C(N/N=C/c1cn(-c2ccccc2)nc1-c1ccc(O)cc1O)c1cccc(-n2cc(-c3ccccc3)nn2)c1,2 µg/mL

# System: Staphylococcus aureus
# Test: Antibacterial activity against Staphylococcus aureus ATCC 29737 incubated for 24 hrs
# Type: functional
row,Structure (SMILES),MIC
1,Cc1cc(OCc2cn(Cc3ccc(Cl)cc3)nn2)cc2oc(=O)ccc12,2 µg/mL
2,Cc1cc(OCc2cn(Cc3cccc([N+](=O)[O-])c3)nn2)cc2oc(=O)ccc12,2 µg/mL
3,Cc1cc(OCc2cn(Cc3cccc(Cl)c3)nn2)cc2oc(=O)ccc12,2 µg/mL
4,NC[C@H]1O[C@H](O[C@H]2[C@H](O)[C@@H](O[C@H]3O[C@H](CO)[C@@H](O)[C@H](N)[C@H]3O)[C@H](N)C[C@@H]2N)[C@H](O)[C@@H](O)[C@@H]1O [KANAMYCIN],2 µg/mL

# System: Micrococcus luteus
# Test: Antibacterial activity against Micrococcus Luteus ATCC 398 incubated for 24 hrs
# Type: functional
row,Structure (SMILES),MIC
1,Cc1cc(OCc2cn(Cc3ccc(Cl)cc3)nn2)cc2oc(=O)ccc12,2 µg/mL
2,Cc1cc(OCc2cn(Cc3cccc([N+](=O)[O-])c3)nn2)cc2oc(=O)ccc12,2 µg/mL
3,Cc1cc(OCc2cn(Cc3cccc(Cl)c3)nn2)cc2oc(=O)ccc12,2 µg/mL
4,NC[C@H]1O[C@H](O[C@H]2[C@H](O)[C@@H](O[C@H]3O[C@H](CO)[C@@H](O)[C@H](N)[C@H]3O)[C@H](N)C[C@@H]2N)[C@H](O)[C@@H](O)[C@@H]1O [KANAMYCIN],2 µg/mL

# System: Bacillus cereus
# Test: Antibacterial activity against Bacillus cereus ATCC 6630 incubated for 24 hrs
# Type: functional
row,Structure (SMILES),MIC
1,Cc1cc(OCc2cn(Cc3ccc(Cl)cc3)nn2)cc2oc(=O)ccc12,2 µg/mL
2,Cc1cc(OCc2cn(Cc3cccc([N+](=O)[O-])c3)nn2)cc2oc(=O)ccc12,2 µg/mL
3,Cc1cc(OCc2cn(Cc3cccc(Cl)c3)nn2)cc2oc(=O)ccc12,2 µg/mL
4,NC[C@H]1O[C@H](O[C@H]2[C@H](O)[C@@H](O[C@H]3O[C@H](CO)[C@@H](O)[C@H](N)[C@H]3O)[C@H](N)C[C@@H]2N)[C@H](O)[C@@H](O)[C@@H]1O [KANAMYCIN],2 µg/mL

# System: Escherichia coli
# Test: Antibacterial activity against Escherichia coli NCIM 2256 incubated for 24 hrs
# Type: functional
row,Structure (SMILES),MIC
1,Cc1cc(OCc2cn(Cc3ccc(Cl)cc3)nn2)cc2oc(=O)ccc12,2 µg/mL
2,Cc1cc(OCc2cn(Cc3cccc([N+](=O)[O-])c3)nn2)cc2oc(=O)ccc12,2 µg/mL
3,Cc1cc(OCc2cn(Cc3cccc(Cl)c3)nn2)cc2oc(=O)ccc12,2 µg/mL
4,NC[C@H]1O[C@H](O[C@H]2[C@H](O)[C@@H](O[C@H]3O[C@H](CO)[C@@H](O)[C@H](N)[C@H]3O)[C@H](N)C[C@@H]2N)[C@H](O)[C@@H](O)[C@@H]1O [KANAMYCIN],2 µg/mL

# System: Pseudomonas fluorescens
# Test: Antibacterial activity against Pseudomonas fluorescens NCIM 2173 incubated for 24 hrs
# Type: functional
row,Structure (SMILES),MIC
1,Cc1cc(OCc2cn(Cc3ccc(Cl)cc3)nn2)cc2oc(=O)ccc12,2 µg/mL
2,Cc1cc(OCc2cn(Cc3cccc([N+](=O)[O-])c3)nn2)cc2oc(=O)ccc12,2 µg/mL
3,Cc1cc(OCc2cn(Cc3cccc(Cl)c3)nn2)cc2oc(=O)ccc12,2 µg/mL
4,NC[C@H]1O[C@H](O[C@H]2[C@H](O)[C@@H](O[C@H]3O[C@H](CO)[C@@H](O)[C@H](N)[C@H]3O)[C@H](N)C[C@@H]2N)[C@H](O)[C@@H](O)[C@@H]1O [KANAMYCIN],2 µg/mL

# System: Sphingomonas paucimobilis
# Test: Antibacterial activity against Flavobacterium devorans ATCC 10829 incubated for 24 hrs
# Type: functional
row,Structure (SMILES),MIC
1,Cc1cc(OCc2cn(Cc3ccc(Cl)cc3)nn2)cc2oc(=O)ccc12,2 µg/mL
2,Cc1cc(OCc2cn(Cc3cccc([N+](=O)[O-])c3)nn2)cc2oc(=O)ccc12,2 µg/mL
3,Cc1cc(OCc2cn(Cc3cccc(Cl)c3)nn2)cc2oc(=O)ccc12,2 µg/mL
4,NC[C@H]1O[C@H](O[C@H]2[C@H](O)[C@@H](O[C@H]3O[C@H](CO)[C@@H](O)[C@H](N)[C@H]3O)[C@H](N)C[C@@H]2N)[C@H](O)[C@@H](O)[C@@H]1O [KANAMYCIN],2 µg/mL

# System: Aspergillus niger
# Test: Antifungal activity against Aspergillus niger NCIM 1196 incubated for 48 hrs
# Type: functional
row,Structure (SMILES),MIC
1,Cc1cc(OCc2cn(Cc3ccc(Cl)cc3)nn2)cc2oc(=O)ccc12,2 µg/mL
2,Cc1cc(OCc2cn(Cc3cccc([N+](=O)[O-])c3)nn2)cc2oc(=O)ccc12,2 µg/mL
3,Cc1cc(OCc2cn(Cc3cccc(Cl)c3)nn2)cc2oc(=O)ccc12,2 µg/mL
4,Clc1ccc(COC(Cn2ccnc2)c2ccc(Cl)cc2Cl)c(Cl)c1 (centres undefined) [MICONAZOLE],16 µg/mL

# System: Penicillium chrysogenum
# Test: Antifungal activity against Penicillium chrysogenum NCIM 723 incubated for 48 hrs
# Type: functional
row,Structure (SMILES),MIC
1,Cc1cc(OCc2cn(Cc3ccc(Cl)cc3)nn2)cc2oc(=O)ccc12,2 µg/mL
2,Cc1cc(OCc2cn(Cc3cccc([N+](=O)[O-])c3)nn2)cc2oc(=O)ccc12,2 µg/mL
3,Cc1cc(OCc2cn(Cc3cccc(Cl)c3)nn2)cc2oc(=O)ccc12,2 µg/mL
4,Clc1ccc(COC(Cn2ccnc2)c2ccc(Cl)cc2Cl)c(Cl)c1 (centres undefined) [MICONAZOLE],16 µg/mL

# System: Curvularia lunata
# Test: Antifungal activity against Curvularia lunata NCIM 1131 incubated for 48 hrs
# Type: functional
row,Structure (SMILES),MIC
1,Cc1cc(OCc2cn(Cc3ccc(Cl)cc3)nn2)cc2oc(=O)ccc12,2 µg/mL
2,Cc1cc(OCc2cn(Cc3cccc([N+](=O)[O-])c3)nn2)cc2oc(=O)ccc12,2 µg/mL
3,Cc1cc(OCc2cn(Cc3cccc(Cl)c3)nn2)cc2oc(=O)ccc12,2 µg/mL
4,Clc1ccc(COC(Cn2ccnc2)c2ccc(Cl)cc2Cl)c(Cl)c1 (centres undefined) [MICONAZOLE],16 µg/mL

# System: Staphylococcus aureus
# Test: Antibacterial activity against Staphylococcus aureus MTCC 96 incubated for 24 hrs by macrodilution tube method
# Type: functional
row,Structure (SMILES),MIC
1,CC1(C)CC(=O)C2=C(C1)Oc1cc3ccc(OCc4cn(-c5ccnc6cc(Cl)ccc56)nn4)cc3cc1C2c1ccccc1 (centres undefined),16 µg/mL

# System: Bacillus cereus
# Test: Antibacterial activity against Bacillus cereus MTCC 430 incubated for 24 hrs by macrodilution tube method
# Type: functional
row,Structure (SMILES),MIC
1,CC1(C)CC(=O)C2=C(C1)Oc1cc3ccc(OCc4cn(-c5ccnc6cc(Cl)ccc56)nn4)cc3cc1C2c1ccccc1 (centres undefined),16 µg/mL

# From ChEMBL document CHEMBL4699440, “Comprehensive review on the anti-bacterial activity of 1,2,3-triazole hybrids” (Eur J Med Chem, 2019)
